The results in this text go back to patent EP4578449A1, “PHARMACEUTICAL COMBINATION OF FAK INHIBITOR AND MICROTUBULE INHIBITOR AND USE THEREOF” (Inxmed (Nanjing) Co., Ltd., priority 2022, dated 2024).

The test system of assay [1] is colon cancer CT26 cells. The experiment in a line: IN10018 and Docetaxel: microscopy and CRT/Annexin-V/PI flow cytometry. The format is cell-based, mouse. Conditions: 48 hours, IN10018 5 µM, Docetaxel 0.1 µM, alone or combined. The protocol: CT26 cells (Institute of Cell Biology, Chinese Academy of Sciences) were cultured with RPMI-1640 (Shanghai Basalmedia, catalog number: L210KJ, batch number: F210916) + 10% FBS (Gibco, catalog number: 10099-141c, batch number: 2158737cp), and passaged twice. When the cells were in good condition, they were placed in a 24-well plate. After 24 hours of cell spreading, four groups were set up. The first group was the control group, in which culture medium was added; the second group was IN10018 at a concentration of 5µM; the third group was Docetaxel (MCE, classification number: HY-B0011, batch number: 111613) with a concentration of 0.1µM; and the fourth group was the combination group of IN10018 (5 µM) and Docetaxel (0.1µM). The drugs were mixed and cultured in a 5 % CO2 incubator at 37°C for 48 hours.
After 48 hours of drug action, the cells were observed and photographed under a microscope. The photos were saved. Then the cells were collected for flow cytometry, and the cells were washed twice with flow buffer (PBS + 2% FBS). 0.5 µl of AF647 anti-calreticulin antibody (abcam, catalog number: ab196159, batch number: CR33676773) was added to each well, and fully mixed. The cells were incubated at 4 °C for 20 minutes in the dark. […] The mixture was incubated at room temperature in the dark for 15 minutes, and then analyzed on a flow cytometer.
In general terms: A flow cytometer gives signals particle by particle.

Assay [2] concerns mouse breast cancer 4T1 cells. The experiment in a line: Eribulin and IN10018: microscopy and CRT/Annexin-V/PI and GRP94 flow cytometry. The format is cell-based. The settings on record: 48 hours, IN10018 5 µM, Eribulin 0.15 µM or 0.45 µM, alone or combined. As for the experimental part: 4T1 cells were cultured in monolayer in vitro under the following conditions: RPMI-1640 medium with 10% fetal bovine serum, 37 °C, 5% CO2. Trypsin was used for routine digestion and passage treatment two to three times a week. When the cells were in the exponential growth phase and the adherent confluence reached 80%-90%, the cells were harvested and plated.
4T1 cells were digested with trypsin and then collected and counted. Based on the counting results, the cells were diluted with RPMI-1640+10% FBS to a concentration of 50,000 cells per milliliter. Then the cells were plated in 12-well cell culture plates, with 2 ml of cell suspension per well, i.e., 100,000 cells. After plating, the cells were cultured in a 37°C and 5% CO2 incubator.
(§1) After 24 hours of plating, test compounds IN10018 and Eribulin were added to different wells, respectively.
(§2) After 48 hours of drug action, the cells were photographed using a microscope, and then trypsinized and collected for flow cytometry staining.
The cells were washed twice with flow buffer (DPBS + 2% FBS), and each group of cells was divided into two equal parts. In one part, 0.5 µL of AF647 Anti-Calreticulin Antibody was added to each well, and mixed. The cells were incubated at 4°C in the dark for 20 min. […]
(§3) After the assay, the cell positive rate was analyzed by Flowjo (V10) software.

Assay [3] deals with human ovarian epithelial carcinoma TOV-21G cells. The experiment in a line: Eribulin and IN10018: microscopy and CRT/Annexin-V/PI flow cytometry. The format is cell-based. Conditions: 48 hours, IN10018 10 µM, Eribulin 0.045 µM, alone or combined. The protocol:
(§4) ID8 cells and TOV-21G cells were cultured in monolayer in vitro. ID8 cells were cultured in DMEM medium with 10% fetal bovine serum. TOV-21G cells were cultured in RPMI-1640 medium with 10% fetal bovine serum. Both were cultured in a 37 °C, 5% CO2 incubator. Trypsin was used for routine digestion and passage treatment two to three times a week. When the cells were in the exponential growth phase and the adherent confluence reached 80%-90%, the cells were harvested and plated.
(§5) ID8 cells and TOV-21G cells were digested with trypsin and then collected and counted. Based on the counting results, the cells were diluted with the corresponding complete culture medium to a concentration of 50,000 cells per milliliter. Then the cells were plated in 12-well cell culture plates, with 2 ml of cell suspension per well, i.e., 100,000 cells.
(§6) After plating, the cells were cultured in a 37°C and 5% CO2 incubator.
as §1, §2
(§7) The cells were washed twice with flow buffer (DPBS + 2% FBS). 0.5 µL of AF647 Anti-Calreticulin Antibody was added to each well, and mixed. The cells were incubated at 4°C in the dark for 20 min. After washing once with flow buffer, 195 µL of Annexin-V-FITC binding solution was added, and the cells were gently mixed well. 5 µL of Annexin-V-FITC antibody was added. After further mixing, 10 µL of PI dye was added and mixed well. The cells were incubated at room temperature in the dark for 15 min. The cells were then subjected to flow cytometry.
as §3

The test system of assay [4] is mouse ovarian epithelial carcinoma ID8 cells. The description is as above. The assay is classed as cell-based. Conditions: 48 hours, IN10018 10 µM, Eribulin 0.045 µM, alone or combined. As for the experimental part:
as §4, §5, §6, §1, §2, §7, §3

Assay [5] deals with MDA-MB-231 cells. The experiment in a line: FAK silencing combined with Eribulin, Annexin V apoptosis by flow cytometry. The format is cell-based. Conditions: MDA-MB-231 cells transfected with FAK siRNA 50 nM for 24 hours, then 0.15 µM Eribulin 48 hours; FAK silencing group compared with control group. The protocol: (§8) • 1. FAK silencing combined with Eribulin promotes apoptosis of breast cancer cells MDA-MB-231 The siRNA technology was used in the in vitro assays to reduce the expression level of FAK, and combined with Eribulin for 48 hours; flow cytometry was used to detect apoptosis in control and FAK silenced cells. • 2. FAK silencing combined with Eribulin can effectively promote the production of ICD in breast cancer cells MDA-MB-231 The siRNA technology was used in the in vitro assay to reduce the expression level of FAK, and combined with Eribulin for 48 hours. Flow cytometry was used to detect the expression of Calreticulin, the main target of ICD.
(§9) Recombinant Alexa Fluor® 647 fluorescent Anti-Calreticulin antibody (Abcam, ab196159), Annexin V apoptosis detection kit (Invitrogen, A35110).
(§10) FAK siRNA was provided by Gene Pharma, and the sequence is shown in the following table: • F: […]; • R: […] • Assay instruments: Fluorescence microscope (Olympus U-HGLGPS). Chemiluminescence imager (BIORAD chemidoc touch).
(§11) • 1. […] The cells were stained using Annexin V kit and detected by flow cytometry. The early and late apoptosis values were counted, compared with those of the DMSO control group, and plotted using Graphpad 8.0. […] The cells were fluorescent stained with Calreticulin antibody, and the staining results were analyzed by flow cytometry.

Assay [6] relates to MDA-MB-231 cells. The assay is described as follows: FAK silencing combined with Eribulin, Calreticulin (ICD target) by flow cytometry. The format is cell-based. Conditions: MDA-MB-231 cells transfected with FAK siRNA 50 nM for 24 hours, then 0.15 µM Eribulin 48 hours; vs control siRNA. The protocol: as §8, §9, §10, §11
Assay [7] deals with mouse colon cancer CT26 cells. The assay is described as follows: Docetaxel/Eribulin/Paclitaxel and Defactinib: microscopy and CRT/Annexin-V/PI flow cytometry. The format is cell-based. The settings on record: 48 hours, Defactinib 5 µM, Docetaxel 0.3 µM, Eribulin 0.3 µM, Paclitaxel 6 µM, alone or combined with Defactinib. The protocol: CT26 cells were cultured in monolayer in vitro under the following conditions: RPMI-1640 medium with 10% fetal bovine serum, 37°C, 5% CO2. Trypsin was used for routine digestion and passage treatment two to three times a week. When the cells were in the exponential growth phase and the adherent confluence reached 80%-90%, the cells were harvested and plated.
CT26 cells were digested with trypsin, and then the cells were collected and counted. Based on the counting results, the cells were diluted with the corresponding complete culture medium to a concentration of 50,000 cells per milliliter. Then the cells were plated in 12-well cell culture plates, with 2 ml of cell suspension per well, i.e., 100,000 cells.
as §6
After 24 hours of plating, the test compounds Docetaxel, Eribulin, Paclitaxel and Defactinib were added to different wells, respectively.
as §2
The cells were washed twice with flow buffer (DPBS + 2% FBS). 0.5 µL of AF647 Anti-Calreticulin Antibody was added to each well, and mixed well. The cells were incubated at 4°C in the dark for 20 min. After washing once with flow buffer, 195 µL of Annexin-V-FITC binding solution was added, and the cells were gently mixed well. 5 µL of Annexin-V-FITC antibody was added. After further mixing, 10 µL of PI dye was added and mixed well. The cells were incubated at room temperature in the dark for 15 min. The cells were then subjected to flow cytometry.
as §3

Assay [8] concerns mouse breast cancer 4T1 cells. The experiment in a line: Docetaxel/Eribulin and Defactinib: microscopy and CRT/Annexin-V/PI flow cytometry. The format is cell-based. The settings on record: 48 hours, Defactinib 5 µM, Docetaxel 0.3 µM, Eribulin 0.1 µM, alone or combined with Defactinib. The protocol: 4T1 cells were cultured in a monolayer in vitro in RPMI-1640 medium with 10% fetal bovine serum in a 37 °C, 5% CO2 incubator. Trypsin was used for routine digestion and passage treatment two to three times a week. When the cells were in the exponential growth phase and the adherent confluence reached 80%-90%, the cells were harvested and plated.
4T1 cells were digested with trypsin, and then the cells were collected and counted. Based on the counting results, the cells were diluted with the corresponding complete culture medium to a concentration of 50,000 cells per milliliter. Then the cells were plated in 12-well cell culture plates, with 2 ml of cell suspension per well, i.e., 100,000 cells.
as §6
After 24 hours of plating, the test compounds Defactinib, Docetaxel and Eribulin were added to different wells, respectively.
as §2
The cells were washed twice with flow buffer (DPBS + 2% FBS). 0.5 µL of AF647 Anti-Calreticulin Antibody was added to each well, and mixed well. The cells were incubated at 4°C in the dark for 20 min. […]
as §3

Take `COc1cc(C(=O)NC2CCN(C)CC2)c(F)cc1Nc1ncc(C(F)(F)F)c(Oc2cccc3c2C(=O)N(C)C3)n1` [IN10018]: the “cell status under a microscope” value in assay [1] is reported as “good”. Further, the “cell status (cell death / cell viability) under a microscope” value in assay [2], in assay [3] and in assay [4] was “better” in each case.

As to `C=C1C[C@@H]2CC[C@@]34C[C@H]5O[C@H]6[C@@H](O3)[C@H]3O[C@H](CC[C@@H]3O[C@H]6[C@H]5O4)CC(=O)C[C@@H]3[C@@H](OC)[C@@H](C[C@H](O)CN)O[C@H]3C[C@H]3O[C@@H](CC[C@@H]1O2)C[C@@H](C)C3=C` [Eribulin], the “early and late apoptosis (Annexin V kit)” value in assay [5] is on record as “significantly enhanced”. Besides, in assay [6], the “release and exposure of Calreticulin” value is “significantly enhanced”. Moreover, the “cell status (cell death / cell viability) under a microscope” value in assay [2], in assay [3] and in assay [4] was “obvious” each time. Further, the “cell status (cell death) under a microscope” value in assay [7] and in assay [8] was “obvious” throughout.
